Where a chain is given by its changes, count along the chain named. Entries after “also recorded” stand apart in the source; their conditions may differ.
Experiments:
[1] = biological target: T1, FicD^R371S (Homo sapiens, UniProt Q9BVA6, R371S); assay: DSF with FicD^R371S variant; assay type: binding; details: addition of 5 mM MgCl2, any concentration tested
T1 construct: Wild-type FicD (residues 105-458) and all mutants were expressed as N-terminal 6xHis-Sumo fusions; 6xHis-Sumo (N, cleaved yes); made in house; host or cells: Rosetta(DE3) E. coli
T1 sequence (Q9BVA6 105-458 R371S): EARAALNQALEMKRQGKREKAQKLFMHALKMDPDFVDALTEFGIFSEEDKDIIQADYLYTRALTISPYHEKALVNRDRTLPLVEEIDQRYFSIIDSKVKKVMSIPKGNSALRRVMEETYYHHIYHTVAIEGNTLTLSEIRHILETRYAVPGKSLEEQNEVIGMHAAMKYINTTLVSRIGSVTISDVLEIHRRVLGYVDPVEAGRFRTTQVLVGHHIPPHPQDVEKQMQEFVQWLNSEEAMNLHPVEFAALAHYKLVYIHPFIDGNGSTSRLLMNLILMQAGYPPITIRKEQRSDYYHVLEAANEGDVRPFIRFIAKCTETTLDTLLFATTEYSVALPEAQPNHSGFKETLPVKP

[2] = biological target: T2, FicD^R374C (Homo sapiens, UniProt Q9BVA6, R374C); assay: AMPylation of Δ26hBiP^T229A by pathogenic variant FicD^R374C; assay type: biochemical; details: indicated concentrations of FPP
T2 construct: Wild-type FicD (residues 105-458) and all mutants were expressed as N-terminal 6xHis-Sumo fusions; 6xHis-Sumo (N, cleaved yes); made in house; host or cells: Rosetta(DE3) E. coli
T2 sequence (Q9BVA6 105-458 R374C): T1 sequence (Q9BVA6 105-458 R371S) with S267R, R270C
From the text: Fig. 5. Crystal structure of FPP inhibitor bound to FicD active site. […] FPP (cyan stick) and Mg^2+ (cyan sphere) in the pocket of FicD shown as APBS electrostatic surface with positive areas in blue, negative in red, and neutral in white (contour level: ±5 kBT/e) (Right). […] (C–E) AMPylation assays of Δ26hBiP^T229A in the presence of the indicated concentration of FPP using the pathogenic human variants (C) FicD^R371S, (D) FicD^R374H and (E) FicD^R374C. AMPylated BiP and Fic were quantified by immunodetection, and total BiP was quantified by CBB. […]
Isothermal Titration Calorimetry
Proteins were dialyzed against 25mM HEPES pH 7.4/100mM KCl/10% glycerol prior to titration. […]
MgCl2 was added to […]
proteins to a final concentration of 4mM. ITC experiments were performed in a Micro-Cal PEAQ-ITC (Malvern Panalytical, Worcestershire, UK) calorimeter with a stirred 206.2 μL reaction cell held at 20 °C. 250μM FPP was titrated into 25uM Δ104hFicL258D with 750rpm stirring. The first injection was 0.5 μL, followed by twenty 1.9 μL injections. […]
Thermogram and binding figures were plotted in
For AMPylation assays with FicD and BiP, Δ104FicDWT and Δ26hBiPT229A were combined at a ratio of 1:80 in buffer containing 25mM HEPES pH 7.4, 100mM KCl, 5mM MgCl2, 500μM ATP, 1mM DTT, and small molecule where indicated. Assays with Δ104FicDWT were incubated for 1 hour. […]

[3] = biological target: T2, FicD^R374C; assay: DSF with FicD^R374C variant; assay type: binding

## CC(C)=CCC/C(C)=C/CC/C(C)=C/COP(=O)(O)OP(=O)(O)O [FPP, farnesyl-pyrophosphate]
[1]
  binding to FicD^R371S by DSF: did not confer FPP binding
[2]
  FPP inhibition of FicD^R374C mediated AMPylation: inhibition; also recorded: inhibited
[3]; absence of Mg2+
  binding to R374C variant by DSF (melting curve shift): caused shifts in the melting curves
[3]; addition of Mg2+
  binding to R374C variant by DSF (melting curve shift): enhanced the binding

Reference: paper PMC12974487, “Inhibition of FicD-mediated AMPylation and deAMPylation by isoprenoid diphosphates” (Proceedings of the National Academy of Sciences of the …, 2026)
